Data published in paper PMC11434840, “Discovery of Benzopyrone-Based Candidates as Potential Antimicrobial and Photochemotherapeutic Agents through Inhibition of DNA Gyrase Enzyme B: Design, Synthesis, In Vitro and In Silico Evaluation” (Pharmaceuticals, 2024).
Where two headings read alike, the source gives them in different places.

Experiments:
[1] = system: Staphylococcus aureus ATCC 25923; experiment: Antimicrobial agar cup-plate assay, S. aureus; type: cell-based; settings: 0.1 mL of compound in DMF, overnight incubation, mean ± SD, at least three experiments
Experimental: (§1) The antimicrobial activity of all newly synthesized compounds was determined using the agar cup-plate method using the Hi-Media agar medium. Xanthotoxin, tobramycin, and amphotericin B were used as reference drugs. All newly synthesized compounds were tested against two strains of Gram-positive bacteria (Bacillus subtilis ATCC 14579 and Staphylococcus aureus ATCC 25923), Gram-negative bacteria (Escherichia coli ATCC 25922), and yeast (Candida albicans ATCC 10231).
(§2) The nutrient agar medium consists of 0.3% of beef extract, 0.5% of peptone, 0.1% dipotassium hydrogen phosphate, and 1.5% agar. Broth cultures of the organisms were prepared by incubating slant agar seeded with the organisms overnight.
(§3) The prepared broth culture (0.02 mL) was carefully added to sterile Petri dishes. Then, 10 mL of the liquefied nutrient agar medium was poured into each dish, mixed uniformly, and allowed to solidify. Using a sterilized cork borer, cups (9 mm) were scooped out of the agar media contained in the Petri dishes. Each test compound (50 mg) was dissolved in 1 mL DMF (50 mg mL^−1), which was used as a stock solution to carry out the twofold dilution technique. A fixed volume (0.1 mL) of the tested compounds dissolved in dimethylformamide (DMF) was added. Each plate contained a cup filled with DMF to disregard the effect of solvent. Additionally, two other cups were filled with tobramycin and xanthotoxin being used as reference drugs. The plates were incubated overnight to examine the antimicrobial activity. Zones of inhibition obtained by each test compound were measured in millimeters and the results are recorded in Table 2.
(§4) GraphPad Prism-version 5 (GraphPad Software, Inc., La Jolla, CA, USA) was used for statistical analysis.

E. coli DNA gyrase = target: T1, E. coli DNA gyrase (Escherichia coli, UniProt P0AES6); experiment: In vitro DNA gyrase supercoiling inhibitory assay; type: biochemical; settings: mean ± SD of three separate experiments
T1 construct: purchased John Innes Enterprises Ltd
Experimental: The supercoiling assay, based on DNA triplex, formation [43] was performed on the black streptavidin-coated 96-well microtiter plates (Thermo Scientific Pierce). Serial dilutions of the tested compounds and standard drugs were prepared, starting from 5.0 U/mL (5.0, 2.5, 1.25, 0.625, 0.312, 0.156, and 0.078 U/mL). The plates were first rehydrated with the supplied wash buffer [20 mM Tris-HCl (pH 7.6), 137 mM NaCl 0.01% (w/v), BSA 0.05% (v/v) Tween 20] and oligonucleotide was immobilized onto the wells. The excess oligonucleotide was then washed off, and the enzyme assay was carried out in the wells.
The final reaction volume of 30 μL in buffer [35 mM Tris × HCl (pH 7.5), 24 mM KCl, 4 mM MgCl2, 2 mM DTT (dithiothreitol), 1.8 mM spermidine, 1 mM ATP, 6.5% (w/v) glycerol, 0.1 mg/mL albumin] contained 1.5 U of gyrase from E. coli, 0.75 μg of relaxed pNO1 plasmid, and 3 μL of inhibitor solution in 10% DMSO and 0.008% Tween 20. Reactions were incubated for 30 min at 37 °C and after the addition of the TF buffer [50 mM NaOAc (pH 5.0), 50 mM NaCl, and 50 mM MgCl2], which terminated the enzymatic reaction for another 30 min at rt to allow the triplex formation. The unbound plasmid was then washed off using TF buffer, and a solution of SybrGOLD stain in T10 buffer [10 mM Tris × HCl (pH 8.0) and 1 mM EDTA] was added. After mixing, the fluorescence (excitation: 495 nm, emission: 537 nm) was measured using BioTek Synergy HT microplate reader. […] GraphPad Prism-version 5 (GraphPad Software, Inc., La Jolla, CA, USA) was used to determine the IC50 values of both the tested compounds and standard drugs across the different concentrations.

[2] = system: Candida albicans ATCC 10231; experiment: Antimicrobial agar cup-plate assay, C. albicans; type: cell-based; parameters: key to Inhibition Zone (mm) C. albicans: -: no activity; settings: 0.1 mL of compound in DMF, overnight incubation, mean ± SD, at least three experiments
Experimental: as §1, §2, §3, §4

[3] = system: Bacillus subtilis ATCC 14579; experiment: Photosensitizing assay (MIC before and after UV irradiation, agar cup-plate); type: cell-based; settings: Bacillus subtilis, ATCC14579, light or radiation study, B. subtilis
Experimental: The photosensitizing activity was determined using the agar cup-plate method (described in Section 2.3) with Hi-Media agar medium. The antibacterial activity against Bacillus subtilis ATCC 14579 was measured before and after exposure to UV lamp (365 nm). The diameters of the inhibition zones were measured in mm and the results were compared with xanthotoxin. The tested organism used was Bacillus subtilis.
For the photosensitizing activity, xanthotoxin was used as a reference drug and DMF as a negative control. The minimum inhibitory concentrations (MIC) were determined using the agar cup-plate method. Each test compound (50 mg) was dissolved in 1 mL DMF (50 mg mL^−1), which was used as a stock solution to carry out the twofold dilution technique. The sample size for all the compounds was adjusted to 0.1 mL. The solution of the test compound (0.1 mL) was added to the cups. The plates were divided into test plates and duplicate plates. Before irradiation, the test plates were incubated in the dark at 37 °C for 3 h to permit the diffusion of the tested compounds through the agar layer. The duplicate plates were incubated overnight and used as a control for the determination of the antibacterial activity. The covers were removed from the test plates, and the dishes were exposed to UV lamp (365 nm) for 20 min. After irradiation, the plates were left overnight in the dark at 37 °C. MIC, the least concentration preventing visible bacterial growth, was determined in both the control and test, indicating the antibacterial and photosensitizing activity of the tested compounds, respectively.
To evaluate the significance of the difference in the results, each experiment was repeated at least three times. […] GraphPad Prism-version 5 (GraphPad Software, Inc., La Jolla, CA, USA) was used to perform statistical analysis of the results.

[4] = system: Bacillus subtilis ATCC 14579; experiment: Antimicrobial agar cup-plate assay, B. subtilis; type: cell-based; settings: 0.1 mL of compound in DMF, overnight incubation, mean ± SD, at least three experiments
Experimental: as §1, §2, §3, §4

[5] = system: Escherichia coli ATCC 25922; experiment: Antimicrobial agar cup-plate assay, E. coli; type: cell-based; settings: 0.1 mL of compound in DMF, overnight incubation, mean ± SD, at least three experiments
Experimental: as §1, §2, §3, §4

[6] = IC50 (μM) DNA gyrase supercoiling
[7] = IC50 (μg mL^−1) DNA gyrase supercoiling
[8] = 20 min, after irradiation with UV lamp (365 nm) for 20 min (photosensitizing activity), 100 μL per cup, read-out: MIC (mg mL^−1) Test
[9] = 20 min, after irradiation with UV lamp (365 nm) for 20 min (photosensitizing activity), read-out: MIC (mM) Test
[10] = without irradiation (antibacterial activity), 100 μL per cup, read-out: MIC (mg mL^−1) Control
[11] = without irradiation (antibacterial activity), read-out: MIC (mM) Control

CCc1cc2c(C)cc(=O)oc2c2c(-c3ccccc3)coc12 [Compound 8a, 9-Ethyl-7-methyl-3-phenyl-5H-furo[2,3-h]benzopyran-5-one]
Inhibition Zone (mm) S. aureus [1]: 25 ± 1.414 mm | IC50 (E. coli DNA gyrase; [6]): 7.89 ± 0.117 µM | IC50 (E. coli DNA gyrase; [7]): 7.89 µM | melting point: 103 to 105 °C | Inhibition Zone (mm) C. albicans [2]: - | MIC [3, 8]: 97 µg/mL | MIC [3, 9]: 0.32 mM | MIC [3, 10]: 310 µg/mL | MIC [3, 11]: 1.02 mM | Inhibition Zone (mm) B. subtilis [4]: 20 ± 1.414 mm | Inhibition Zone (mm) E. coli [5]: 30 ± 1.414 mm

CCc1cc2c(C)cc(=O)oc2c2c(-c3ccc(C)cc3)coc12 [Compound 8b, 9-Ethyl-7-methyl-3-(4-methylphenyl)-5H-furo[2,3-h]benzopyran-5-one]
Inhibition Zone (mm) S. aureus [1]: 30 ± 1.414 mm | IC50 (E. coli DNA gyrase; [6]): 38.6 ± 0.513 µM | IC50 (E. coli DNA gyrase; [7]): 38.6 µM | melting point: 149 to 151 °C | Inhibition Zone (mm) C. albicans [2]: - | MIC [3, 8]: 97 µg/mL | MIC [3, 9]: 0.3 mM | MIC [3, 10]: 780 µg/mL | MIC [3, 11]: 2.45 mM | Inhibition Zone (mm) B. subtilis [4]: 10 ± 1.414 mm | Inhibition Zone (mm) E. coli [5]: 30 ± 1.414 mm

CCc1cc2c(-c3ccccc3)cc(=O)oc2c2c(-c3ccccc3)coc12 [Compound 8d, 3,7-Diphenyl-9-ethyl-5H-furo[2,3-h]benzopyran-5-one]
Inhibition Zone (mm) S. aureus [1]: 23 ± 1.414 mm | IC50 (E. coli DNA gyrase; [6]): 0.76 ± 0.0223 µM | IC50 (E. coli DNA gyrase; [7]): 0.764 µM | melting point: 178 to 180 °C | Inhibition Zone (mm) C. albicans [2]: - | MIC [3, 8]: 97 µg/mL | MIC [3, 9]: 0.26 mM | MIC [3, 10]: 780 µg/mL | MIC [3, 11]: 2.13 mM | Inhibition Zone (mm) B. subtilis [4]: 12 ± 0.8165 mm | Inhibition Zone (mm) E. coli [5]: 30 ± 0.8165 mm

CCc1cc2c(-c3ccccc3)cc(=O)oc2c2c(-c3ccc(OC)cc3)coc12 [Compound 8f, 9-Ethyl-3-(4-methoxyphenyl)-7-phenyl-5H-furo[2,3-h]benzopyran-5-one]
Inhibition Zone (mm) S. aureus [1]: 20 ± 1.414 mm | melting point: 150 to 153 °C | Inhibition Zone (mm) C. albicans [2]: - | MIC [3, 8]: 3120 µg/mL | MIC [3, 9]: 7.88 mM | MIC [3, 10]: 6250 µg/mL | MIC [3, 11]: 15.8 mM | Inhibition Zone (mm) B. subtilis [4]: 14 ± 1.414 mm | Inhibition Zone (mm) E. coli [5]: 18 ± 0.8165 mm
